Legend:
HCV replicon gt1a_H77 = experiment: Cell-based HCV replicon assay (TaqMan), genotype 1a (H77); settings: Hepatitis C virus, 72 h, replicon 1a (H77); replicon RNA by TaqMan, day 3
Description: (§1) Measurement of inhibition by compounds of the present invention was performed using the HCV replicon system. Several different replicons encoding different HCV genotypes or mutations were used. In addition, potency measurements were made using different formats of the replicon assay, including different ways of measurements and different plating formats. See Jan M. Vrolijk et al., A replicons-based bioassay for the measurement of interferons in patients with chronic hepatitis C, 110 J. VIROLOGICAL METHODS 201 (2003); Steven S. Carroll et al., Inhibition of Hepatitis C Virus RNA Replication by 2′-Modified Nucleoside Analogs, 278(14) J. BIOLOGICAL […] 11979 (2003). However, the underlying principles are common to all of these determinations, and are outlined below.
(§2) Compounds of the present invention were assayed for cell-based anti-HCV activity using the following protocol. Replicon cells were seeded at 5000 cells/well in 96-well collagen I-coated Nunc plates in the presence of the test compound. Various concentrations of test compound, typically in 10 serial 2-fold dilutions, were added to the assay mixture, with the starting concentration ranging from 250 μM to 1 μM. The final concentration of DMSO was 0.5%, fetal bovine serum was 5%, in the assay media. Cells were harvested on day 3 by the addition of 1× cell lysis buffer (Ambion cat #8721). The replicon RNA level was measured using real time PCR (TaqMan® assay). The amplicon was located in 5B. The PCR primers were: 5B.2F, […] (SEQ. ID NO. 1); 5B.2R, […] (SEQ. ID NO. 2); the probe sequence was FAM-labeled […] (SEQ. ID NO. 3). GAPDH RNA was used as endogenous control and was amplified in the same reaction as NS5B (multiplex PCR) using primers and VIC-labeled probe recommended by the manufacturer (PE Applied Biosystem). The real-time RT-PCR reactions were run on ABI PRISM 7900HT Sequence Detection System using the following program: 48° C. for 30 minutes, 95° C. for 10 minutes, 40 cycles of 95° C. for 15 sec, 60° C. for 1 minute. The ΔCT values (CT5B-CTGAPDH) were plotted against the concentration of test compound and fitted to the sigmoid dose-response model using XLfit4 (MDL). […] Alternatively, to quantitate the absolute amount of replicon RNA, a standard curve was established by including serially diluted T7 transcripts of replicon RNA in the Taqman assay. All TaqMan® reagents were from PE Applied Biosystems. Such an assay procedure was described in detail in e.g. Malcolm et al., Antimicrobial Agents and Chemotherapy 50: 1013-1020 (2006).
(§3) Wherein gt1a_H77 was prepared as described in Yi et al., J Virol. 2004, 78(15):7904-15; gt1b_con1 was prepared as described in Lohmann et al., Science 1999, 285(5424):110-3; and gt2a_JFH was prepared as described in Kato et al., Gastroenterology. 2003, 125(6):1808-17. Chimeric replicons contain NS5A from patient isolates of genotypes 1a, 1b, 2b, 3a and 4a as indicated.

HCV replicon gt1b_con1 = experiment: Cell-based HCV replicon assay (TaqMan), genotype 1b (Con1); settings: Hepatitis C virus, 72 h; replicon 1b (Con1); replicon RNA by TaqMan, day 3
Description: as §1, §2, §3

HCV replicon gt2a_JFH = experiment: Cell-based HCV replicon assay (TaqMan), genotype 2a (JFH); settings: Hepatitis C virus, 72 h, replicon 2a (JFH); replicon RNA by TaqMan, day 3
Description: as §1, §2, §3

[1] = test system: HCV chimeric replicon with NS5A of genotype 3a (NC00982); experiment: Cell-based HCV replicon assay (TaqMan), chimeric replicon genotype 3a (NC00982); settings: Hepatitis C virus, 72 h, read-out: HCV replicon EC50 3a (NC00982), chimeric replicon 3a (NC00982); replicon RNA by TaqMan, day 3
Description: as §1, §2, §3

[2] = test system: HCV chimeric replicon with NS5A of genotype 4a (DQ41878); experiment: Cell-based HCV replicon assay (TaqMan), chimeric replicon genotype 4a (DQ41878); settings: Hepatitis C virus, 72 h, read-out: HCV replicon EC50 4a (DQ41878)
Description: as §1, §2, §3

[3] = test system: HCV replicon 1a (Y93H) mutant; experiment: Cell-based HCV replicon assay (TaqMan), genotype 1a mutant Y93H; settings: Hepatitis C virus, 72 h, read-out: HCV replicon EC50 1a (Y93H)
Description: as §1, §2, §3

[4] = test system: HCV replicon 1a (L31V) mutant; experiment: Cell-based HCV replicon assay (TaqMan), genotype 1a mutant L31V; settings: Hepatitis C virus, 72 h, read-out: HCV replicon EC50 1a (L31V)
Description: as §1, §2, §3

SMILES: CC(C)[C@H](NC(=O)OC1(C)CC1)C(=O)N1CCC(F)(F)C[C@H]1c1ncc(-c2ccc(-c3ccc4c(ccc5nc([C@@H]6C[Si](C)(C)CN6C(=O)[C@@H](NC(=O)OC6(C)CC6)C(C)C)[nH]c54)c3)cc2)[nH]1 [Compound 86]
- EC50 (HCV replicon gt1a_H77): > 1 nM
- EC50 (HCV replicon gt1b_con1): 141 nM
- EC50 (HCV replicon gt2a_JFH): > 10 nM
- EC50 [1]: > 100 nM
- EC50 [2]: > 100 nM
- EC50 [3]: > 1000 nM
- EC50 [4]: > 1000 nM

SMILES: CC(C)OC(=O)N[C@H](C(=O)N1CCC(F)(F)C[C@H]1c1ncc(-c2ccc(-c3ccc4c(ccc5nc([C@@H]6C[Si](C)(C)CN6C(=O)[C@@H](NC(=O)OC(C)C)C(C)C)[nH]c54)c3)cc2)[nH]1)C(C)C [Compound 88]
- EC50 (HCV replicon gt1a_H77): > 1 nM
- EC50 (HCV replicon gt1b_con1): 4 nM
- EC50 (HCV replicon gt2a_JFH): > 10 nM
- EC50 [1]: > 100 nM
- EC50 [2]: > 100 nM
- EC50 [3]: > 1000 nM
- EC50 [4]: > 1000 nM

SMILES: COC(=O)N[C@H](C(=O)N1CC(F)C[C@H]1c1ncc(-c2ccc(-c3ccc4c(ccc5nc([C@@H]6C[Si](C)(C)CN6C(=O)[C@@H](NC(=O)OC)C(C)C)[nH]c54)c3)cc2)[nH]1)C(C)C (stereo partly drawn) [Compound 55]
- EC50 (HCV replicon gt1a_H77): 0.07 nM
- EC50 (HCV replicon gt1b_con1): 0.006 nM
- EC50 (HCV replicon gt2a_JFH): 0.15 nM
- EC50 [1]: 0.8 nM
- EC50 [2]: 0.35 nM
- EC50 [3]: 27 nM
- EC50 [4]: 62 nM

SMILES: COC(=O)N[C@H](C(=O)N1C[Si](C)(C)C[C@H]1c1ncc(-c2ccc(-c3ccc4c(ccc5nc([C@@H]6C[C@@H](F)CN6C(=O)[C@@H](NC(=O)OC)C(C)C)[nH]c54)c3)c(F)c2)[nH]1)C(C)C [Compound 57]
- EC50 (HCV replicon gt1a_H77): 0.068 nM
- EC50 (HCV replicon gt1b_con1): < 0.05 nM
- EC50 (HCV replicon gt2a_JFH): 0.069 nM
- EC50 [1]: 0.798 nM
- EC50 [2]: 0.652 nM
- EC50 [3]: 50 nM

SMILES: COC(=O)N[C@H](C(=O)N1CC(F)(F)C[C@H]1c1nc2ccc3cc(-c4ccc5c(ccc6nc([C@@H]7C[Si](C)(C)CN7C(=O)[C@@H](NC(=O)OC)C(C)C)[nH]c65)c4)ccc3c2[nH]1)C(C)C [Compound 70]
- EC50 (HCV replicon gt1a_H77): 0.012 nM
- EC50 (HCV replicon gt1b_con1): 0.007 nM
- EC50 (HCV replicon gt2a_JFH): 0.04 nM
- EC50 [1]: 0.118 nM
- EC50 [2]: 0.077 nM
- EC50 [3]: 25 nM

SMILES: CC(C)[C@H](NC(=O)OC1(C)CC1)C(=O)N1CC(C)(C)C[C@H]1c1ncc(-c2ccc(-c3ccc4c(ccc5nc([C@@H]6C[Si](C)(C)CN6C(=O)[C@@H](NC(=O)OC6(C)CC6)C(C)C)[nH]c54)c3)cc2)[nH]1 [Compound 80]
- EC50 (HCV replicon gt1a_H77): > 1 nM
- EC50 (HCV replicon gt1b_con1): > 1 nM
- EC50 (HCV replicon gt2a_JFH): > 10 nM
- EC50 [1]: > 100 nM
- EC50 [2]: > 100 nM
- EC50 [3]: > 1000 nM

SMILES: COC(=O)N[C@H](C(=O)N1C[Si](C)(C)C[C@H]1c1ncc(-c2ccc(-c3ccc4c(ccc5nc([C@@H]6CC(F)(F)CN6C(=O)[C@@H](NC(=O)OC)C(C)C)[nH]c54)c3)c(F)c2)[nH]1)C(C)C [Compound 58]
- EC50 (HCV replicon gt1a_H77): 0.03 nM
- EC50 (HCV replicon gt1b_con1): 0.002 nM
- EC50 (HCV replicon gt2a_JFH): 0.15 nM
- EC50 [1]: 0.8 nM
- EC50 [2]: 0.36 nM
- EC50 [3]: 118 nM

SMILES: COC(=O)N[C@H](C(=O)N1CC(F)(F)C[C@H]1c1ncc(-c2ccc(-c3ccc4c(ccc5nc([C@@H]6C[Si](C)(C)CN6C(=O)[C@@H](NC(=O)OC)C(C)C)[nH]c54)c3)c(F)c2)[nH]1)C(C)C [Compound 60]
- EC50 (HCV replicon gt1a_H77): 0.06 nM
- EC50 (HCV replicon gt1b_con1): 0.003 nM
- EC50 (HCV replicon gt2a_JFH): 0.09 nM
- EC50 [1]: 2.9 nM
- EC50 [2]: 0.129 nM
- EC50 [3]: 96 nM

SMILES: COC(=O)N[C@H](C(=O)N1CC(C)(C)C[C@H]1c1ncc(-c2ccc(-c3ccc4c(ccc5nc([C@@H]6C[Si](C)(C)CN6C(=O)[C@@H](NC(=O)OC)C(C)C)[nH]c54)c3)cc2)[nH]1)C(C)C [Compound 78]
- EC50 (HCV replicon gt1a_H77): 0.015 nM
- EC50 (HCV replicon gt1b_con1): 0.001 nM
- EC50 (HCV replicon gt2a_JFH): 0.04 nM
- EC50 [1]: 0.26 nM
- EC50 [2]: 0.137 nM
- EC50 [3]: 90 nM

SMILES: COC(=O)N[C@H](C(=O)N1CCS(=O)(=O)CC1c1ncc(-c2ccc(-c3ccc4c(ccc5nc([C@@H]6C[Si](C)(C)CN6C(=O)[C@@H](NC(=O)OC)C(C)C)[nH]c54)c3)cc2)[nH]1)C(C)C (stereo partly drawn) [Compound 67]
- EC50 (HCV replicon gt1a_H77): 0.19 nM
- EC50 (HCV replicon gt1b_con1): 0.011 nM
- EC50 (HCV replicon gt2a_JFH): 0.16 nM
- EC50 [1]: 5 nM
- EC50 [2]: 0.5 nM
- EC50 [3]: 380 nM

SMILES: COC(=O)N[C@H](C(=O)N1C[Si]2(CCCC2)C[C@H]1c1ncc(-c2ccc(-c3ccc4c(ccc5nc([C@@H]6CC(F)(F)CN6C(=O)[C@@H](NC(=O)OC)C(C)C)[nH]c54)c3)cc2)[nH]1)C(C)C [Compound 89]
- EC50 (HCV replicon gt1a_H77): 0.054 nM
- EC50 (HCV replicon gt1b_con1): 0.006 nM
- EC50 (HCV replicon gt2a_JFH): 0.5 nM
- EC50 [1]: 0.275 nM
- EC50 [2]: 0.035 nM
- EC50 [3]: 211 nM

SMILES: CC(C)[C@H](NC(=O)OC1(C)CC1)C(=O)N1C[Si](C)(C)C[C@@H]1c1ncc(-c2ccc(-c3ccc4c(ccc5nc([C@H]6C[C@H](F)CN6C(=O)[C@@H](NC(=O)OC6(C)CC6)C(C)C)[nH]c54)c3)c(F)c2)[nH]1 [Compound 83]
- EC50 (HCV replicon gt1a_H77): > 1 nM
- EC50 (HCV replicon gt1b_con1): 52 nM
- EC50 (HCV replicon gt2a_JFH): > 10 nM
- EC50 [1]: > 100 nM
- EC50 [2]: > 100 nM
- EC50 [3]: > 1000 nM

SMILES: COC(=O)N[C@H](C(=O)N1C[Si](C)(C)C[C@@H]1c1nc2ccc3cc(-c4ccc(-c5cnc([C@@H]6CC(C)(C)CN6C(=O)[C@@H](NC(=O)OC)C(C)C)[nH]5)cc4)ccc3c2[nH]1)C(C)C [Compound 79]
- EC50 (HCV replicon gt1a_H77): 0.127 nM
- EC50 (HCV replicon gt1b_con1): 0.012 nM
- EC50 (HCV replicon gt2a_JFH): 0.315 nM
- EC50 [1]: 4.4 nM
- EC50 [2]: 0.45 nM
- EC50 [3]: 351 nM

SMILES: CC(C)OC(=O)N[C@H](C(=O)N1C[Si](C)(C)C[C@@H]1c1ncc(-c2ccc(-c3ccc4c(ccc5nc([C@H]6C[C@H](F)CN6C(=O)[C@@H](NC(=O)OC(C)C)C(C)C)[nH]c54)c3)c(F)c2)[nH]1)C(C)C [Compound 84]
- EC50 (HCV replicon gt1a_H77): > 1 nM
- EC50 (HCV replicon gt1b_con1): 2.4 nM
- EC50 (HCV replicon gt2a_JFH): > 10 nM
- EC50 [1]: > 100 nM
- EC50 [2]: > 100 nM
- EC50 [3]: > 1000 nM

SMILES: COC(=O)N[C@H](C(=O)N1C[Si]2(CCCC2)C[C@H]1c1ncc(-c2ccc(-c3ccc4c(ccc5nc([C@@H]6CCCN6C(=O)[C@@H](NC(=O)OC)C(C)C)[nH]c54)c3)cc2)[nH]1)C(C)C [Compound 61]
- EC50 (HCV replicon gt1a_H77): 0.06 nM
- EC50 (HCV replicon gt1b_con1): 0.005 nM
- EC50 (HCV replicon gt2a_JFH): 0.005 nM
- EC50 [1]: 0.2 nM
- EC50 [2]: 0.076 nM
- EC50 [3]: 350 nM

From patent US8609635B2, “Fused tricyclic silyl compounds and methods of use thereof for the treatment of viral diseases” (priority 2010, dated 2013)
